Measured values reported in patent publication US12691136B2, “Metal compositions and methods of use thereof” (THE UNIVERSITY OF MASSACHUSETTS, priority 2020, dated 2026).
Entries after “also recorded” stand apart in the source; their conditions may differ. Like-named read-outs stand apart in the source and are kept apart here.

How the values were obtained:
[1] = tested on: Pseudomonas aeruginosa PAO1; test: Antibacterial assay / bacterial checkerboard assay (MIC, FIC, MBC); details: for Enhancement: MIC without TU vs with 7 mM TU; for change in MIC / activity with the addition of TU (isobologram): FIG. 1A / 1B, combination with TU; for MIC: Pseudomonas aeruginosa; for Fold Improvement in MIC: at the best FIC; for impact of TU on activity: common antibiotics with TU, Table 3 entries; for Best FIC: with TU at the [TU] of the same line
[2] = tested on: Pseudomonas aeruginosa PAO1; details: reference antibiotics against P. aeruginosa PAO1; cited from earlier work
[3] = [Au], Table 8, strain not given

CC(=O)OC[C@H]1O[C@@H]([S-])[C@H](OC(C)=O)[C@@H](OC(C)=O)[C@@H]1OC(C)=O.CCP(CC)CC.[Au+] [Auranofin, auranofin]
MIC (0 mM TU) ([1]; [Au], Table 9): 377 µM
activity enhancement ([1]; 7 mM TU vs alone): 256 fold
MIC (7 mM TU) ([1]; [Au], Table 9): 1.5 µM
Enhancement ([1]; Table 9): 256

O.O.O.[Cl][Au-]([Cl])([Cl])[Cl].[H+] [HAuCl4 (Au^3+), tetrachloroauric(III) acid trihydrate]
MIC (0 mM TU) ([1]; [Au], Table 9): 40 µM
activity enhancement ([1]; 7 mM TU vs alone): 32 fold
MIC (7 mM TU) ([1]; [Au], Table 9): 1.3 µM
Enhancement ([1]; Table 9): 32

C[PH](C)(C)[Au][S]CCO [MS-40, trimethylphosphine gold(I) mercaptoethanol]
MIC (0 mM TU) [1, 3]: 5.7 µM
MIC (1 mM TU) ([1]; 1 mM TU, [Au], Table 8, strain not given): 5.7 µM
MIC (2 mM TU) ([1]; 2 mM TU, [Au], Table 8, strain not given): 5.7 µM
MIC (3 mM TU) ([1]; 3 mM TU, [Au], Table 8, strain not given): 5.7 µM
MIC (7 mM TU) [1, 3]: 5.7 µM
MIC (13 mM TU) ([1]; 13 mM TU, [Au], Table 8, strain not given): 2.9 µM
MIC (27 mM TU) ([1]; 27 mM TU, [Au], Table 8, strain not given): 2.9 µM
MIC (54 mM TU) ([1]; 54 mM TU, [Au], Table 8, strain not given): 1.4 µM
activity enhancement ([1]; at 54 mM TU): 4 fold

CCN1CCN(C(=O)N[C@@H](C(=O)N[C@@H]2C(=O)N3[C@@H]2SC(C)(C)[C@@H]3C(=O)O)c2ccccc2)C(=O)C1=O [Piperacillin]
change in MIC / activity with the addition of TU (isobologram) [1]: very little change
change in MIC / activity with the addition of TU (isobologram) ([1]; listed as piperacillin): almost no change
MIC ([1]; PAO1, read-out: MIC w/o TU): 2 µM
MIC ([1]; PAO1, read-out: MIC with TU): 2 µM
Fold Improvement in MIC [1]: 1
impact of TU on activity [1]: no impact
Best FIC [1]: 1.0

NC(N)=S [TU, thiourea]
MIC ([1]; PAO1): 16 mg/mL

O=C(O)c1cn(C2CC2)c2cc(N3CCNCC3)c(F)cc2c1=O [ciprofloxacin]
change in MIC / activity with the addition of TU (isobologram) [1]: very little change; also recorded: almost no change

Gentamicin
change in MIC / activity with the addition of TU (isobologram) [1]: very little change; also recorded: almost no change
MIC with TU ([1]; TU at the [TU] of the same line (best FIC)): 4.0 µM
Fold Improvement in MIC [1]: 1
impact of TU on activity [1]: no impact
Best FIC [1]: 1.0
MIC w/o TU ([1]; without TU): 4.0 µM

colistin
MIC [2]: 0.001 mg/mL
